Data reported in patent publication US9645154B2, “Method for detecting cancer cell” (ARKRAY, Inc., priority 2010, dated 2017).

Columns and labels:
[1] = tested on: Breast cancer cell line MCF-7 and blood cells (leucocytes and erythrocytes); test: 2-NBDG incorporation observed visually under a fluorescence microscope; format: cell-based, human; settings: sample 1, mixture of MCF-7 and blood cells, 37° C., 40 minutes
Method: From venous blood of a healthy person, a […] and precipitates were separated by centrifugation according to the conventional method. From the […], a leucocyte layer and an erythrocyte layer were partially collected, and then resuspended in PBS to prepare a leucocyte sample and a erythrocyte sample, respectively.
Breast cancer cell line MCF-7 (purchased from DS Pharma Biomedical Co., Ltd). was cultured at 37° C. with 5% (v/v) CO2 using α-MEM culture medium (Invitrogen, supplemented with 10% (v/v) FBS, 2 mM L-glutamine, 100 U/mL penicillin and 100 μg/mL streptomycin). Immediately before the test, the cells were harvested with 0.25% trypsin-EDTA and washed with PBS, thereby preparing a cancer cell line sample.
To each of 300 μL (4×10^5 cells/mL) of the cancer cell line, the blood cells (leucocytes and erythrocytes) or a mixture thereof was added 30 μL of 10 mM 2-[N-(7-nitrobenz-2-oxa-1,3-diazol-4-yl)amino]-2-deoxy-D-glucose (2-NBDG) (Wako Pure Chemical Industries, Ltd.) according to the description in Table 2, thereby preparing samples 1 to 7. These samples were then incubated at 37° C. for 40 minutes. To the sample to which 2-NBDG was not added, a corresponding amount of PBS was added instead of 2-NBDG.
After incubation, each sample was centrifuged at 2,000 rpm for 5 minutes (Hitachi Ltd.) to harvest the cells. To the harvested cells was added 10 μL of an anti-EpCAM antibody-PE (R&D systems), and the mixture was allowed to stand for 30 minutes in the cool and dark place.
After 30 minutes, the mixture was washed with 1,000 μL of PBS, and the cells were harvested by centrifugation at 2000 rpm for 5 minutes in accordance with the conventional method.
The harvested cells were resuspended in 50 μL of PBS, and the entire volume thereof was transferred to a 96-well plate, thereby preparing an observation sample.
Each of the observation samples was observed under a fluorescence microscope (Nikon Corp.), and an amount of 2-NBDG incorporated was visually observed.

[2] = tested on: human alveolar epithelial cancer cells (NCI-H358); test: Aminolevulinic acid (with FeCl2 and ascorbic acid) labeling, fluorescence microscopy image analysis (positive rate); format: cell-based; settings: hemolyzed, 0.3 mM, 60 min, 37° C., threshold value 212
Text: (§1) The number of the cells was counted using a hemacytometer in accordance with the conventional method, and then 10^5 to 10^6 cells per sample (cell suspension) was aliquoted. The sample was centrifuged to remove the supernatant. Subsequently, aminolevulinic acid 5-AMINOLEVULINATE HYDROCHLORIDE (trade name, Cosmo Bio Co., Ltd., at the final concentration given in Table 7 or 8) dissolved in Dulbecco's PBS (+) and FeCl2 and ascorbic acid having the same concentration as that of aminolevulinic acid, respectively, were added thereto, and the cells were suspended well. The number of the cells was adjusted, and then the cells were added dropwise to a 384-well plate. The plate was centrifuged to spin down the cells. The image was captured with a fluorescence microscope (Nikon Corp.).
(§2) The wavelengths for the fluorescence filter set: EX (excitation wavelength): 402±7.5, DM: 430 or longer, BA (fluorescence wavelength): 625±15.
(§3) The acquired images were analyzed using an image analysis software NIS-ELEMENTS (trade name, Nikon Corp.) to evaluate the fluorescence intensity of the cell.
(§4) In a manner similar to Example 4, each of human breast adenocarcinoma cells (Cell line name: MCF-7; DS Pharma Biomedical Co., Ltd.), human colon adenocarcinoma cells (Cell line name: SW620; DS Pharma Biomedical Co., Ltd.), human prostate cancer cells (Cell line name: PC3; DS Pharma Biomedical Co., Ltd.), human alveolar epithelial cancer cells (Cell line name: NCI-H358; DS Pharma Biomedical Co., Ltd.), human gastric cancer cells (Cell line name: SNU-1; ATCC) and human fibrosarcoma cells (Cell line name: HT1080; DS Pharma Biomedical Co., Ltd.) was detected with aminolevulinic acid.

[3] = tested on: human breast adenocarcinoma cells (MCF-7); test: as above; format: cell-based; settings: hemolyzed, 0.3 mM, 60 min, 37° C., threshold value 268
Text: as §1, §2, §3, §4

[4] = tested on: human colon adenocarcinoma cells (SW620); test: as above; format: cell-based; settings: hemolyzed, 0.3 mM, 60 min, 37° C., threshold value 207
Text: as §1, §2, §3, §4

[5] = tested on: human fibrosarcoma cells (HT1080); test: as above; format: cell-based; settings: hemolyzed, 0.3 mM, 60 min, 37° C., threshold value 203
Text: as §1, §2, §3, §4

[6] = tested on: normal human dermal fibroblast cell NHDF; test: Aminolevulinic acid labeling with or without iron ion and reducing agent (degree of false-positive results); format: cell-based; settings: 0.3 mM, 37° C., 60 min
Text: In accordance with the conventional method, human fibrosarcoma cell HT-1080 (DS Pharma Biomedical Co., Ltd.) and normal human dermal fibroblast cell NHDF (Lonza) in culture were harvested with trypsin (Invitrogen). The cell suspension of the harvested cancer cells was centrifuged, and the supernatant was removed. The cells were then resuspended with Dulbecco's PBS (+) (Nissui Pharmaceutical Co., Ltd.) and centrifuged, and the supernatant was removed again.
The number of the cells was counted using a hemacytometer in accordance with the conventional method, and then 10^5 to 10^6 cells per sample (cell suspension) was aliquoted. The sample was centrifuged to remove the supernatant. In the case an iron ion and a reducing agent were added, 0.3 mM of aminolevulinic acid (trade name: 5-AMINOLEVULINATE HYDROCHLORIDE, Cosmo Bio Co., Ltd.), 0.3 mM of FeCl2 and 0.3 mM of ascorbic acid dissolved in Dulbecco's PBS (+) were added thereto, and the cells were suspended well. In the case an iron ion and a reducing agent were not added, 0.3 mM of aminolevulinic acid dissolved in Dulbecco's PBS (+) was added singly, and the cells were suspended well. Each of the mixture was then allowed to react at 37° C. for 60 minutes. The number of cells was adjusted, and then the cells were added dropwise to a 384-well plate. The plate was centrifuged to spin down the cells.
The fluorescence filter set: EX (excitation wavelength) 402±7.5, DM 430 or longer, BA (fluorescence wavelength) 625±15.

[7] = Ascorbic acid 0.3 mM, FeC12 0.3 mM

Compound | fluorescence image of erythrocyte cell [1] | fluorescence intensity of the leucocyte cell image relative to the cancer cell [1] | observation of the cancer cell line in the fluorescence image ([1]; FIGS. 4 to 6) | Positive rate (Cancer cells) [2] | Positive rate (Cancer cells) [3] | Positive rate (Cancer cells) [4] | Positive rate (Cancer cells) [5] | Negative rate (Normal epithelial cells (NHDF)) ([6]; Ascorbic acid 0, FeC12 0) | Positive rate (Normal epithelial cells (NHDF)) ([6]; Ascorbic acid 0, FeC12 0) | Negative rate (Normal epithelial cells (NHDF)) [6, 7] | Positive rate (Normal epithelial cells (NHDF)) [6, 7]
O=[N+]([O-])c1ccc(N[C@H]2C(O)O[C@H](CO)[C@@H](O)[C@@H]2O)c2nonc12 (stereo partly drawn) [2-NBDG, 2-[N-(7-nitrobenz-2-oxa-1,3-diazol-4-yl)amino]-2-deoxy-D-glucose] | not observed at all | equal to or less than half the fluorescence intensity of the cancer cell | clearly observed |  |  |  |  |  |  |  | 
NCC(=O)CCC(=O)O [aminolevulinic acid, 5-amino-4-oxopentanoic acid] |  |  |  | 94.4% | 86.7% | 97.0% | 94.6% | 37.7% | 62.3% | 85.7% | 14.3%
